The values below are quoted from earlier work in patent publication US7517693B2, “Method and apparatus for determining a molecular descriptor of absorption for a candidate compound” (North Carolina State University, priority 2002, dated 2009).

Structures are written as SMILES.

The conditions of the data set: Table III calibration compounds, known literature descriptor; for logL^16 (solute gas-hexadecane partition coefficient): 25° C.

Consider `CCCCCCCl` [1-Chlorohexane], for which the “logL^16 (solute gas-hexadecane partition coefficient)” value was 3.777; the “α (effective solute H-bond acidity)” value is reported as 0.00; the “β (effective solute H-bond basicity)” value was 0.10; the “π (effective solute dipolarity and polarizability)” value was 0.40.

With `Cc1ccc([N+](=O)[O-])cc1` [4-Nitrotoluene], the “logL^16 (solute gas-hexadecane partition coefficient)” value is given as 5.154; the “α (effective solute H-bond acidity)” value is listed as 0.00; the “β (effective solute H-bond basicity)” value is reported as 0.28; the “π (effective solute dipolarity and polarizability)” value was 1.11.

In the case of `C1CCCCC1` [Cyclohexane], the “logL^16 (solute gas-hexadecane partition coefficient)” value was 2.964; the “α (effective solute H-bond acidity)” value is given as 0.00; the “β (effective solute H-bond basicity)” value is listed as 0.00; the “π (effective solute dipolarity and polarizability)” value is given as 0.10.

For `CCCCCCCCCCCCO` [Compound 1-Dodecanol, 1-Dodecanol], the “logL^16 (solute gas-hexadecane partition coefficient)” value is given as 6.640; the “α (effective solute H-bond acidity)” value was 0.37; the “β (effective solute H-bond basicity)” value is recorded as 0.48; the “π (effective solute dipolarity and polarizability)” value is reported as 0.42.

As for `CCCCN` [n-Butylamine], the “α (effective solute H-bond acidity)” value is given as 0.16; the “β (effective solute H-bond basicity)” value is recorded as 0.61; the “π (effective solute dipolarity and polarizability)” value is 0.35.

As for `CCOP(=O)(OCC)OCC` [Triethyl phosphate], the “logL^16 (solute gas-hexadecane partition coefficient)” value is 4.750; the “α (effective solute H-bond acidity)” value is 0.00; the “β (effective solute H-bond basicity)” value is 1.06; the “π (effective solute dipolarity and polarizability)” value is 1.00.

Regarding `Oc1ccccc1F` [2-Fluorophenol], the “logL^16 (solute gas-hexadecane partition coefficient)” value is 3.453; the “α (effective solute H-bond acidity)” value is 0.61; the “β (effective solute H-bond basicity)” value is recorded as 0.26; the “π (effective solute dipolarity and polarizability)” value is 0.69.

Turning to `N#Cc1cccc(O)c1` [3-Cyanophenol], the “logL^16 (solute gas-hexadecane partition coefficient)” value is 5.181; the “α (effective solute H-bond acidity)” value is recorded as 0.77; the “β (effective solute H-bond basicity)” value was 0.28; the “π (effective solute dipolarity and polarizability)” value is on record as 1.55.

In the case of `Cc1ccccc1O` [o-Cresol], the “logL^16 (solute gas-hexadecane partition coefficient)” value is on record as 4.218; the “α (effective solute H-bond acidity)” value is 0.52; the “β (effective solute H-bond basicity)” value was 0.30; the “π (effective solute dipolarity and polarizability)” value is given as 0.86.

Turning to `CCF` [Fluoroethane], the “logL^16 (solute gas-hexadecane partition coefficient)” value is on record as 0.559; the “α (effective solute H-bond acidity)” value is 0.00; the “β (effective solute H-bond basicity)” value is given as 0.10; the “π (effective solute dipolarity and polarizability)” value is 0.35.

Turning to `CCC(=O)c1ccccc1` [Ethylphenylketone], the “logL^16 (solute gas-hexadecane partition coefficient)” value was 4.971; the “α (effective solute H-bond acidity)” value is recorded as 0.00; the “β (effective solute H-bond basicity)” value is 0.51; the “π (effective solute dipolarity and polarizability)” value was 0.95.

On to `ClC=CCl` [1,2-Dichloroethene], for which the “α (effective solute H-bond acidity)” value is recorded as 0.11; the “β (effective solute H-bond basicity)” value is listed as 0.05; the “π (effective solute dipolarity and polarizability)” value was 0.61.

With `CCCCCCCCCCCO` [Compound 1-Undecanol, 1-Undecanol], the “logL^16 (solute gas-hexadecane partition coefficient)” value is given as 6.130; the “α (effective solute H-bond acidity)” value is given as 0.37; the “β (effective solute H-bond basicity)” value is reported as 0.48; the “π (effective solute dipolarity and polarizability)” value is reported as 0.42.

For the compound `c1ccc2c(c1)sc1ccccc12` [Dibenzothiophen], the “logL^16 (solute gas-hexadecane partition coefficient)” value is reported as 7.575; the “α (effective solute H-bond acidity)” value is listed as 0.00; the “β (effective solute H-bond basicity)” value was 0.18; the “π (effective solute dipolarity and polarizability)” value is listed as 1.31.

As to `CCCCCCCCCl` [1-Chlorooctane], the “logL^16 (solute gas-hexadecane partition coefficient)” value is 4.772; the “α (effective solute H-bond acidity)” value was 0.00; the “β (effective solute H-bond basicity)” value was 0.10; the “π (effective solute dipolarity and polarizability)” value is 0.40.

`C1CCCCCCC1` [Cyclooctane]: the “logL^16 (solute gas-hexadecane partition coefficient)” value is reported as 4.329; the “α (effective solute H-bond acidity)” value is reported as 0.00; the “β (effective solute H-bond basicity)” value is given as 0.00; the “π (effective solute dipolarity and polarizability)” value is recorded as 0.10.

Consider `Oc1ccc(Cl)cc1` [4-Chlorophenol], for which the “logL^16 (solute gas-hexadecane partition coefficient)” value is given as 4.775; the “α (effective solute H-bond acidity)” value was 0.67; the “β (effective solute H-bond basicity)” value is given as 0.20; the “π (effective solute dipolarity and polarizability)” value is on record as 1.08.

Consider `CCCCNCCCC` [Di-n-butylamine], for which the “logL^16 (solute gas-hexadecane partition coefficient)” value was 4.349; the “α (effective solute H-bond acidity)” value is reported as 0.08; the “β (effective solute H-bond basicity)” value is given as 0.69; the “π (effective solute dipolarity and polarizability)” value is 0.30.

Take `CN(C)C` [Trimethylamine]: the “logL^16 (solute gas-hexadecane partition coefficient)” value was 1.620; the “α (effective solute H-bond acidity)” value is recorded as 0.00; the “β (effective solute H-bond basicity)” value is given as 0.67; the “π (effective solute dipolarity and polarizability)” value is listed as 0.20.

For the compound `ClC(Cl)(Cl)Cl` [Tetrachloromethane], the “logL^16 (solute gas-hexadecane partition coefficient)” value is 2.823; the “α (effective solute H-bond acidity)” value is given as 0.00; the “β (effective solute H-bond basicity)” value is 0.00; the “π (effective solute dipolarity and polarizability)” value is on record as 0.38.

As for `Sc1ccccc1` [Thiophenol], the “α (effective solute H-bond acidity)” value is listed as 0.09; the “β (effective solute H-bond basicity)” value is reported as 0.16; the “π (effective solute dipolarity and polarizability)” value is recorded as 0.80.

`CCCCCO` [Compound 1-Pentanol, 1-Pentanol]: the “logL^16 (solute gas-hexadecane partition coefficient)” value is listed as 3.106; the “α (effective solute H-bond acidity)” value was 0.37; the “β (effective solute H-bond basicity)” value is 0.48; the “π (effective solute dipolarity and polarizability)” value is listed as 0.42.

With `CCN(CC)CC` [Triethylamine], the “logL^16 (solute gas-hexadecane partition coefficient)” value is 3.040; the “α (effective solute H-bond acidity)” value is given as 0.00; the “β (effective solute H-bond basicity)” value is reported as 0.79; the “π (effective solute dipolarity and polarizability)” value is given as 0.15.

As to `OCC(F)(F)F` [2,2,2-Trifluoroethanol], the “logL^16 (solute gas-hexadecane partition coefficient)” value is 1.224; the “α (effective solute H-bond acidity)” value is listed as 0.57; the “β (effective solute H-bond basicity)” value was 0.25; the “π (effective solute dipolarity and polarizability)” value is given as 0.60.

For `CCCCCCF` [1-Fluorohexane], the “logL^16 (solute gas-hexadecane partition coefficient)” value is recorded as 2.951; the “α (effective solute H-bond acidity)” value is 0.00; the “β (effective solute H-bond basicity)” value is 0.10; the “π (effective solute dipolarity and polarizability)” value is 0.35.

On to `Oc1ccc(I)cc1` [Compound 4-Iodophenol, 4-Iodophenol], for which the “logL^16 (solute gas-hexadecane partition coefficient)” value is on record as 5.492; the “α (effective solute H-bond acidity)” value was 0.68; the “β (effective solute H-bond basicity)” value is 0.20; the “π (effective solute dipolarity and polarizability)” value is 1.22.

On to `COC(=O)c1ccccc1C(=O)OC` [Dimethyl phthalate], for which the “α (effective solute H-bond acidity)” value was 0.00; the “β (effective solute H-bond basicity)” value is given as 0.88; the “π (effective solute dipolarity and polarizability)” value was 1.41.

For `c1ccc2c(c1)ccc1ccccc12` [Phenanthrene], the “logL^16 (solute gas-hexadecane partition coefficient)” value was 7.632; the “α (effective solute H-bond acidity)” value is listed as 0.00; the “β (effective solute H-bond basicity)” value is on record as 0.26; the “π (effective solute dipolarity and polarizability)” value was 1.29.

On to `Cc1c(C)c(C)c(C)c(C)c1C` [Hexamethylbenzene], for which the “logL^16 (solute gas-hexadecane partition coefficient)” value is 6.557; the “α (effective solute H-bond acidity)” value is reported as 0.00; the “β (effective solute H-bond basicity)” value was 0.21; the “π (effective solute dipolarity and polarizability)” value is on record as 0.72.

For `c1ccccc1` [Benzene], the “π (effective solute dipolarity and polarizability)” value is 0.52.

For `CCN` [Ethylamine], the “logL^16 (solute gas-hexadecane partition coefficient)” value is listed as 1.677; the “α (effective solute H-bond acidity)” value is reported as 0.16; the “β (effective solute H-bond basicity)” value is recorded as 0.61; the “π (effective solute dipolarity and polarizability)” value is listed as 0.35.

With `Oc1ccc2ccccc2c1` [Compound 2-Naphthol, 2-Naphthol], the “α (effective solute H-bond acidity)” value is given as 0.61; the “β (effective solute H-bond basicity)” value is 0.40; the “π (effective solute dipolarity and polarizability)” value is 1.08.

Take `CO` [Methanol]: the “logL^16 (solute gas-hexadecane partition coefficient)” value is 0.970; the “α (effective solute H-bond acidity)” value was 0.43; the “β (effective solute H-bond basicity)” value was 0.47; the “π (effective solute dipolarity and polarizability)” value is 0.44.

Take `N#Cc1ccc(O)cc1` [4-Cyanophenol]: the “α (effective solute H-bond acidity)” value is 0.79; the “β (effective solute H-bond basicity)” value is 0.29; the “π (effective solute dipolarity and polarizability)” value is reported as 1.63.

As to `Oc1ccc(F)cc1` [4-Fluorophenol], the “logL^16 (solute gas-hexadecane partition coefficient)” value is reported as 3.844; the “α (effective solute H-bond acidity)” value is reported as 0.63; the “β (effective solute H-bond basicity)” value was 0.23; the “π (effective solute dipolarity and polarizability)” value is 0.97.

For `C1CCNCC1` [Piperidine], the “logL^16 (solute gas-hexadecane partition coefficient)” value was 3.304; the “α (effective solute H-bond acidity)” value is listed as 0.10; the “β (effective solute H-bond basicity)” value is given as 0.69; the “π (effective solute dipolarity and polarizability)” value is on record as 0.46.

For `OC1CCCCC1` [Cyclohexanol], the “α (effective solute H-bond acidity)” value is 0.32; the “β (effective solute H-bond basicity)” value is recorded as 0.57; the “π (effective solute dipolarity and polarizability)” value is 0.54.

As to `COc1ccccc1O` [2-Methoxyphenol], the “logL^16 (solute gas-hexadecane partition coefficient)” value is 4.449; the “α (effective solute H-bond acidity)” value was 0.22; the “β (effective solute H-bond basicity)” value is 0.52; the “π (effective solute dipolarity and polarizability)” value is given as 0.91.

Consider `CCOCC` [Diethylether], for which the “α (effective solute H-bond acidity)” value was 0.00; the “β (effective solute H-bond basicity)” value is listed as 0.45; the “π (effective solute dipolarity and polarizability)” value was 0.25.
